Experimental data: patent EP0124891A2, “Antimutagenic agent and method of inactivating the mutagenicity of foods and beverages by using said agent” (SUNTORY LIMITED, priority 1983, dated 1984)

Legend:
[1] = test system: Neuros^pera crassa; details: cited from earlier work
[2] = test system: human cells; details: cited from earlier work
[3] = test system: mouse deodenum; details: 0.1 % of hydrogen peroxide; cited from earlier work
[4] = test system: Salmonella typhimurium TA 100; experiment: Mutagenicity and antimutagenic effect, Salmonella test (Ames), preincubation method, revertant colony count; details: Salmonella typhimurium TA 100 (histidine-requiring), 48 h, pH 7.4
Experimental: Histidine-requiring Salmonella typhimurium TA 100 (hereunder S. TA 100) was used.
Instant coffee powder was dissolved in distilled water. Predetermined amounts of wheat germ preparations were also dissolved in distilled water, and 50 µl of each solution was mixed with an equal amount of the aqueous coffee solution.
Roasted coffee beans (20 g) were extracted with hot distilled water (250 ml), and the extract was filtered through coffee filter paper No. 12 manufactured by Kalita Co., Ltd. The extract was freeze-dried, and after measuring the weight of the dry product, it was dissolved in distilled water. Predetermined amounts of wheat germ preparations were also dissolved in distilled water, and 50 µl of each solution was mixed with an equal amount of the aqueous solution of coffee concentrate. […]
To 100 µl of each of the samples prepared in (iii)(a) to (f), 500 µl of 0.1 M sodium phosphate buffer (pH 7.4) plus 100 µl of a culture of S. TA 100 strain were added. […] After incubation at 37°C for 48 hours, the number of colonies forming on the plate was counted as revertants. The percent inhibition of mutagenicity can be calculated by the following formula, if necessary: [formula]
A powder of extracted coffee beans (15 mg) as prepared by the method shown in I)(iii)(b) was dissolved in distilled water to make 50 µl. […] The mutagenicity of each mixture was determined by the method shown in I)(i).

## OO [Hydrogen peroxide, hydrogen peroxide]
[1]
  mutagenicity to Neurospora crassa: mutagenic
[2]
  clastogenicity to human cells: clastogenic
[3]
  carcinogenicity: proved to cause malignant tumors
[4]
  mutagenicity to S. TA 100: 160 revertants/10^8 survivors/Pmole
